The record followed here is US4526890A, “3,6,7,8-Substituted-s-triazolo[4,3-b]pyridazines as bronchodilators” (The Dow Chemical Company, priority 1981, dated 1985).

The test system of data set [1] is histamine-induced bronchoconstriction. Kind of data set: Bronchodilator activity in the Konzett-Rossler guinea pig preparation (histamine-induced bronchoconstriction). The class given is in vivo. On the set-up: key to Histamine Blockade: % blockade = 100 − (post-dose response / mean of 3 prior) × 100. The settings on record: for percent blockade of histamine / percent of aminophylline activity: 3 mg/kg intravenously; for percent blockade of histamine: 2 minutes prior to histamine; for Histamine Blockade: table 7, intravenous, 3 mg/kg except as otherwise indicated, aminophylline 10 mg/kg; for percent of aminophylline activity: aminophylline 10 mg/kg for comparison, histamine agonist. As to the method: Bronchodilator activity of representative triazolopyridazine compounds of the invention is examined in the Konzett-Rossler quinea pig preparation according to accepted procedures. See Knozett and Rossler; Arch. f. Exp. Path. u. Pharmakol. […] Int. Pharmacodyn. […] In this procedure an anesthetized guinea pig is artificially respired with a fixed volume of air. The volume of air is selected to slightly exceed the capacity of the guinea pig's lungs, and the excess air or "overflow" is measured. Test compounds are evaluated by administering a test compound intravenously 2 minutes prior to administration of an agonist compound (histamine, serotonin or acetylcholine) following 3 previous agonist doses resulting in relatively uniform (±10 percent) bronchoconstriction. […] This is calculated by dividing the "overflow" agonist response measured after administration of the test compound by the average of the 3 preceding agonist responses, multiplying by 100 and subtracting this value from 100 percent.

Data set [2] in a line: 30 minute LD50 (acute toxicity without sound). The following applies: mouse, in vivo, ip. As to the method: (§1) The interaction of sound with the convulsive threshold of drugs is a known phenomenon which can be used to evaluate such side effects. […] In a procedure for pharmacological evaluation, the lowering of the convulsive threshold, or the lowering of the LD50, by sound can be studied in mice.
(§2) In the test operations, mice are administered a test compound by intraperitoneal injection at various dosages, and the number of mice showing tonic convulsions and the number of fatalities occurring within 30 minutes is recorded.

Data set [3] is described as follows: Audiogenic convulsive side effects (sound challenge: tonic convulsions and fatalities). The settings on record: mouse, ip. The protocol:
as §1, §2
The sound exposure is carried out by placing the mice in a sound insulated cage with a bell which emits 120 decibels of sound, and activating the bell for two minutes. The number of tonic convulsions and fatalities are then recorded to determine the ED50 and LD50 in the presence of the sound challenge.

With `Cc1cc2nnc(C)n2nc1N1CCCCC1` [3,7-dimethyl-6-piperidino-s-triazolo[4,3-b]pyridazine], in data set [1], the “percent blockade of histamine” value is given as 48% and the “Histamine Blockade” value is 48. The LD50 at 0.5 h in data set [2] was 327 mg/kg. In data set [3] (in vivo), this compound gave an LD50 of 327 mg/kg. For the same compound, the TD50 in data set [3] is 260 mg/kg.
Turning to `Cc1nnc2c3c(c(N4CCOCC4)nn12)CCCC3` [6-Morpholino-3-methyl-7,8-tetramethylene-s-triazolo[4,3-b]pyridazine], the “Histamine Blockade” value in data set [1] amounted to 61. The LD50 at 0.5 h in data set [2] worked out at 149 mg/kg. Also, in data set [3] (in vivo), the LD50 came to 126 mg/kg and the selectivity ratio was roughly 1.18. This compound also yielded a TD50 in data set [3] of 90 mg/kg.
`c1nnc2c3c(c(N4CCOCC4)nn12)CCCC3` [6-Morpholino-7,8-tetramethylene-s-triazolo[4,3-b]pyridazine]: in data set [1], the “percent blockade of histamine” value came to 75% and the “percent of aminophylline activity” value was determined as 113%. The selectivity ratio in data set [3] (in vivo) was 3.8.
Turning to `Cc1nnc2c3c(c(N4CCCCC4)nn12)CCCC3` [6-Piperidino-3-methyl-7,8-tetramethylene-s-triazolo[4,3-b]pyridazine], in data set [1], the “Histamine Blockade” value amounted to 38. Moreover, the LD50 at 0.5 h in data set [2] came out at 139 mg/kg. Moreover, the LD50 in data set [3] (in vivo) is 139 mg/kg. Besides, the TD50 in data set [3] is 125 mg/kg.
Regarding `Cc1c(N2CCCC2)nn2cnnc2c1C` [7,8-Dimethyl-6-pyrrolidino-s-triazolo[4,3-b]pyridazine], in data set [1], the “percent blockade of histamine” value was 65%, the “percent of aminophylline activity” value worked out at 67% and the “Histamine Blockade” value was found to be 62. Also, the LD50 at 0.5 h in data set [2] stood at 277 mg/kg. In data set [3] (in vivo), this compound returned an LD50 of 277 mg/kg and a TD50 of 277 mg/kg.
As to `Cc1cc2nncn2nc1N1CCOCC1` [7-Methyl-6-morpholino-s-triazolo[4,3-b]pyridazine], the bronchodilator activity entry in data set [1] (in words) is reported as “desirable bronchodilator activity”. For the same compound, in data set [2], the LD50 at 0.5 h was found to be 327 mg/kg. The same compound returned an LD50 in data set [3] (in vivo) of 280 mg/kg. The TD50 in data set [3] was 45 mg/kg.
On to `Cn1c(=O)c2[nH]cnc2n(C)c1=O` [Aminophylline, reference compound], for which the inhibition in vivo at 10 mg/kg in data set [1] (Cavia porcellus, iv, read-out: Histamine Blockade) worked out at 37%.
As to `Cc1cc2nncn2nc1N1CCCC1` [Example 3, 7-methyl-6-pyrrolidino-s-triazolo[4,3-b]pyridazine], the “Histamine Blockade” value in data set [1] came to 43. In addition, the 50% lethal dose (LD50) at 0.5 h in data set [2] worked out at 272 mg/kg. This compound also showed a median lethal dose (LD50) in data set [3] (in vivo) of 176 mg/kg. Also, in data set [3], the TD50 worked out at 141 mg/kg.
For `Cc1cc2nncn2nc1N1CCN(C)CC1` [Example 4, 7-Methyl-6-N-methylpiperazino-s-triazolo[4,3-b]pyridazine], in data set [1], the “percent blockade of histamine” value was 39% and the “Histamine Blockade” value is recorded as 39. The same compound gave an LD50 at 0.5 h in data set [2] of 272 mg/kg. In data set [3] (in vivo), the LD50 came out at 140 mg/kg and the TD50 came to 116 mg/kg.
Turning to `CN1CCN(c2nn3cnnc3c3c2C2CCC3C2)CC1` (stereo not drawn) [Example 5, 7,8,9,10-tetrahydro-6-[4-methyl-1-piperazinyl)-7,10-methano(1,2,4)triazolo[3,4-a]phthalazine], the “Histamine Blockade” value in data set [1] came to 92. Besides, in data set [2], the LD50 at 0.5 h stood at 175 mg/kg. The LD50 in data set [3] (in vivo) stood at 147 mg/kg. In data set [3], this compound returned a TD50 of 147 mg/kg.
`Cc1nnc2c3c(c(N4CCOCC4)nn12)C1CCC3C1` (stereo not drawn) [Example 6, 7,8,9,10-tetrahydro-3-methyl-6-(4-morpholinyl)-7,10-methano(1,2,4)triazolo[3,4-a]phthalazine]: the “Histamine Blockade” value in data set [1] worked out at 76. Also, the LD50 at 0.5 h in data set [2] turned out to be 86 mg/kg. This compound had an LD50 in data set [3] (in vivo) of 74 mg/kg. Besides, the TD50 in data set [3] worked out at 61 mg/kg.
On the same counts, the results for `c1nnc2c3c(c(N4CCCC4)nn12)C1CCC3C1` (stereo not drawn) [Example 7] are 87, 136 mg/kg, 100 mg/kg and 93 mg/kg.
For the compound `c1nnc2c3c(c(N4CCCCC4)nn12)C1CCC3C1` (stereo not drawn) [Example 8], the “Histamine Blockade” value in data set [1] amounted to 84. This compound also registered an LD50 at 0.5 h in data set [2] of 108 mg/kg. The compound further gave a median lethal dose (LD50) in data set [3] (in vivo) of 98 mg/kg. In data set [3], the TD50 was 90 mg/kg.
Consider `Cc1nnc2c3c(c(N4CCCC4)nn12)C1CCC3C1` (stereo not drawn) [Example 10], for which the “Histamine Blockade” value in data set [1] amounted to 95. Besides, the LD50 at 0.5 h in data set [2] was 85 mg/kg. The compound also gave a median lethal dose (LD50) in data set [3] (in vivo) of 85 mg/kg. The TD50 in data set [3] was 85 mg/kg.
Regarding `Cc1nnc2c3c(c(N4CCN(C)CC4)nn12)C1CCC3C1` (stereo not drawn) [Example 13], the “Histamine Blockade” value in data set [1] was 97. The compound also showed an LD50 at 0.5 h in data set [2] of 147 mg/kg. In addition, in data set [3] (in vivo), the LD50 was 147 mg/kg and the TD50 was 147 mg/kg.
In the case of `c1nnc2c3c(c(N4CCCC4)nn12)C1CCC3CC1` [Example 15], in data set [1], the “Histamine Blockade” value stood at 66. Also, the LD50 at 0.5 h in data set [2] was 136 mg/kg. This compound also showed an LD50 in data set [3] (in vivo) of 117 mg/kg. The compound also displayed a TD50 in data set [3] of 117 mg/kg.
Take `c1nnc2c3c(c(N4CCOCC4)nn12)C1CCC3CC1` [Example 17]: the “Histamine Blockade” value in data set [1] is given as 58. In data set [2], this compound gave an LD50 at 0.5 h of 118 mg/kg. This compound returned an LD50 in data set [3] (in vivo) of 85 mg/kg. The same compound registered a TD50 in data set [3] of 62 mg/kg.
As to `Cc1nnc2c3c(c(N4CCCC4)nn12)C1CCC3CC1` [Example 18], in data set [1], the “Histamine Blockade” value was 55. In data set [2], this compound came in with an LD50 at 0.5 h of 141 mg/kg. In data set [3] (in vivo), this compound showed an LD50 of 141 mg/kg and a TD50 of 141 mg/kg.
For the compound `CN1CCN(c2nn3cnnc3c3c2C2CCC3CC2)CC1` [Example 21], in data set [1], the “Histamine Blockade” value came out at 82. Besides, the LD50 at 0.5 h in data set [2] came out at 147 mg/kg. Also, the LD50 in data set [3] (in vivo) is 147 mg/kg. The TD50 in data set [3] is 113 mg/kg.
`Cc1nnc2c3c(c(N4CCN(C)CC4)nn12)C1CCC3CC1` [Example 23]: the “Histamine Blockade” value in data set [1] is 90. This compound displayed an LD50 at 0.5 h in data set [2] of 147 mg/kg. In data set [3] (in vivo), the LD50 is 147 mg/kg and the TD50 came to 147 mg/kg.
Take `c1nnc2c3c(c(N4CCCC4)nn12)CCCC3` [Example 24, 6-(1-pyrrolidinyl)-7,8,9,10-tetrahydro(1,2,4)triazolo[3,4-a]phthalazine]: in data set [1], the “percent blockade of histamine” value came out at 100%, the “percent of aminophylline activity” value turned out to be 105% and the “Histamine Blockade” value amounted to 86. The compound further showed an LD50 at 0.5 h in data set [2] of 191 mg/kg. In addition, the LD50 in data set [3] (in vivo) came out at 170 mg/kg. The compound further displayed a TD50 in data set [3] of 150 mg/kg.
With `c1nnc2c3c(c(N4CCCCC4)nn12)CCCC3` [Example 25, 6-piperidino-7,8-tetramethylene-s-triazolo[4,3-b]pyridazine], in data set [1], the “Histamine Blockade” value amounted to 72. Further, the LD50 at 0.5 h in data set [2] stood at 298 mg/kg. The compound further yielded an LD50 in data set [3] (in vivo) of 298 mg/kg. For the same compound, the TD50 in data set [3] stood at 283 mg/kg.
`CN1CCN(c2nn3cnnc3c3c2CCCC3)CC1` [Example 27, 6-(4-methyl-1-piperazinyl)-7,8-tetramethylene(1,2,4)triazolo[4,3-b]pyridazine]: the “Histamine Blockade” value in data set [1] is 91. The same compound returned an LD50 at 0.5 h in data set [2] of 147 mg/kg. In addition, the LD50 in data set [3] (in vivo) worked out at 134 mg/kg. This compound also gave a TD50 in data set [3] of 134 mg/kg.
Take `Cc1c(N2CCCCC2)nn2c(C)nnc2c1C` [R7 Methyl; R3 CH3; R8 CH3; R6 Piperidino, 6-Piperidino-3,7,8-trimethyl-s-triazolo[4,3-b]pyridazine]: the “Histamine Blockade” value in data set [1] came to 30. In data set [2], this compound returned an LD50 at 0.5 h of 141 mg/kg. In data set [3] (in vivo), this compound displayed an LD50 of 141 mg/kg and a TD50 of 141 mg/kg.

Broadly, the LD50 is the dose at which mortality reaches 50%.
